Reference: ChEMBL document CHEMBL1133951, “New anti-malarial flavonol glycoside from Hydrangeae Dulcis Folium” (2001)

Experiments:
Plasmodium falciparum [1] = test: Antimalarial potency against Plasmodium falciparum at 0.05 ng/mL.; format: functional
Plasmodium falciparum [2] = test: Anti-malarial potency against Plasmodium falciparum at 0.1 ng/ml; format: functional
Plasmodium falciparum [3] = test: Antimalarial potency against Plasmodium falciparum at 0.5 ng/mL.; format: functional
Plasmodium falciparum [4] = test: Anti-malarial potency against Plasmodium falciparum at 5 ng/ml; format: functional
KB 3-1 [5] = test: Cytotoxic activity against KB 3-1 cells at 5 ug/m; Not detected.; format: functional, cell-based; details: Homo sapiens
Plasmodium falciparum [6] = test: Inhibitory ratio on proliferation of Plasmodium falciparum at 0.1 uM; format: functional
KB 3-1 [7] = test: Cytotoxic activity against KB 3-1 cells at 5 ug/mL; Not detected.; format: functional, cell-based; details: Homo sapiens

SMILES: O=c1c(O[C@@H]2O[C@H](CO)[C@H](O)[C@@H](O)[C@H]2O)c(-c2ccc(O)c(O)c2)oc2cc(O)cc(O)c12
- Activity (Plasmodium falciparum [1]): 31.1%
- Activity (Plasmodium falciparum [2]): 27.7%
- Activity (Plasmodium falciparum [3]): 31.7%
- Activity (Plasmodium falciparum [4]): 36.8%

SMILES: C[C@@H]1O[C@@H](Oc2c(-c3ccc(O)c(O)c3)oc3cc(O)cc(O)c3c2=O)[C@H](O)[C@H](O)[C@H]1O[C@@H]1O[C@H](CO)[C@H](O)[C@@H](O)[C@H]1O
- Activity (Plasmodium falciparum [1]): 25%
- Activity (Plasmodium falciparum [2]): 32.8%
- Activity (Plasmodium falciparum [3]): 43.4%
- Activity (Plasmodium falciparum [4]): 48.1%

SMILES: O=c1c(O[C@@H]2O[C@H](CO[C@@H]3OC[C@@H](O)[C@H](O)[C@H]3O)[C@H](O)[C@H](O)[C@H]2O)c(-c2ccc(O)cc2)oc2cc(O)cc(O)c12
- Cytotoxicity (KB 3-1 [5]): Not detected
- Activity (Plasmodium falciparum [1]): 22.4%
- Activity (Plasmodium falciparum [2]): 43.1%
- Activity (Plasmodium falciparum [3]): 61.9%
- Activity (Plasmodium falciparum [4]): 56.2%

SMILES: C[C@@H]1O[C@@H](Oc2c(-c3ccc(O)c(O)c3)oc3cc(O)cc(O)c3c2=O)[C@H](O)[C@H](O)[C@H]1O [QUERCITRIN]
- Activity (Plasmodium falciparum [1]): 34%
- Activity (Plasmodium falciparum [2]): 39.4%
- Activity (Plasmodium falciparum [3]): 36%
- Activity (Plasmodium falciparum [4]): 32.9%

SMILES: C=C[C@H]1CN2CC[C@H]1C[C@H]2[C@H](O)c1ccnc2ccc(OC)cc12 [QUININE]
- Inhibitory ratio (Plasmodium falciparum [6]): 45.3

SMILES: COc1cc(-c2oc3cc(O)cc(O)c3c(=O)c2O[C@H]2O[C@H](CO[C@@H]3O[C@@H](C)[C@H](O)[C@@H](O)[C@H]3O)[C@H](O)[C@@H](O)[C@H]2O)ccc1O
- Activity (Plasmodium falciparum [1]): 10.8%
- Activity (Plasmodium falciparum [2]): 24.5%
- Activity (Plasmodium falciparum [3]): 44.5%
- Activity (Plasmodium falciparum [4]): 41.5%

SMILES: CC(=O)OC[C@H]1O[C@@H](O[C@@H]2[C@@H](O)[C@@H](O)[C@H](Oc3c(-c4ccc(O)c(O)c4)oc4cc(O)cc(O)c4c3=O)O[C@H]2C)[C@H](O)[C@H](O)[C@H]1O
- Cytotoxicity (KB 3-1 [7]): Not detected
- Activity (Plasmodium falciparum [1]): 27.4%
- Activity (Plasmodium falciparum [2]): 40.3%
- Activity (Plasmodium falciparum [3]): 52.1%
- Activity (Plasmodium falciparum [4]): 65.4%

SMILES: C[C@@H]1O[C@@H](OC[C@H]2O[C@H](Oc3c(-c4ccc(O)cc4)oc4cc(O)cc(O)c4c3=O)[C@H](O)[C@H](O)[C@H]2O)[C@H](O)[C@H](O)[C@H]1O
- Activity (Plasmodium falciparum [1]): 30.5%
- Activity (Plasmodium falciparum [2]): 49.1%
- Activity (Plasmodium falciparum [3]): 60.1%
- Activity (Plasmodium falciparum [4]): 50.9%

SMILES: C[C@@H]1O[C@@H](OC[C@H]2O[C@H](Oc3c(-c4ccc(O)c(O)c4)oc4cc(O)cc(O)c4c3=O)[C@H](O)[C@H](O)[C@H]2O)[C@H](O)[C@H](O)[C@H]1O
- Cytotoxicity (KB 3-1 [7]): Not detected
- Activity (Plasmodium falciparum [1]): 38.7%
- Activity (Plasmodium falciparum [2]): 51.6%
- Activity (Plasmodium falciparum [3]): 56%
- Activity (Plasmodium falciparum [4]): 56.4%

SMILES: C[C@@H]1O[C@@H](OC[C@H]2O[C@@H](Oc3c(-c4ccc(O)cc4)oc4cc(O)cc(O)c4c3=O)[C@H](O[C@H]3OC[C@H](O)[C@@H](O)[C@@H]3O)[C@@H](O)[C@H]2O)[C@H](O)[C@H](O)[C@H]1O
- Cytotoxicity (KB 3-1 [7]): Not detected
- Activity (Plasmodium falciparum [1]): 37.6%
- Activity (Plasmodium falciparum [2]): 54.2%
- Activity (Plasmodium falciparum [3]): 68.7%
- Activity (Plasmodium falciparum [4]): 58.9%
